Values of other authors as cited in patent US6645390B1, “Composition and method for treating hydrocarbon fires” (Hazard Control Technologies, Inc., priority 1994, dated 2003).

## isononanoic acid
  solubility in water: slightly soluble
At the concentration of its slight solubility in water
  pH: about 3.5
